One experiment has as its system p-ERK in AGS cells. Kind of experiment: Inhibition of p-ERK in AGS cells (LANCE Ultra phospho-ERK1/2 kit). It counts as cell-based. Conditions: Homo sapiens, AGS, 2 h, read-out: AGS_pERK IC50. The procedure:
1. Experimental objective: The inhibition activity of the example compounds on the phosphorylated ERK level in KRAS G12D mutant cells AGS was determined. 2. Experimental instruments: • 2.1 Instruments: Envison; Pipette (Eppendorf & Rainin) • 2.2 Reagents: AGS cells were purchased from COBIOER BIOSCIENCES CO., LTD, with a catalog number of CBP60476; Phosphorylated ERK1/2 (T202-Y204) LANCE Ultra Cellular Detection Kit was purchased from PerkinElmer, with a catalog number of TRF4000M; RPMI 1640 was purchased from Gibco, with a catalog number of 22400071; FBS was purchased from Gibco, with a catalog number of 10091148; PBS was purchased from Gibco, with a catalog number of 10010023; trypsin was purchased from Gibco, with a catalog number of 25200056; cell culture plates were purchased from Corning Company, with a catalog number of 3610; White opaque OptiPlate™-384 plates were purchased from PerkinElmer, with a catalog number of 6007290. 3. Experimental method: When AGS cells were cultured to appropriate confluence, the AGS cells were collected, and the cell density was adjusted to 4 × 10^5/mL using complete culture medium. The cell suspension was plated onto a 96-well plate at 100 µL per well, and the plate was placed in the incubator at 37°C and 5% CO2 for adherent culture overnight. Solutions of the compound with different concentrations were formulated using DMSO and complete culture medium, and a vehicle control was set up. The solutions of the compound were added to the 96-well plate at 25 µL per well, and the plate was placed in the incubator at 37°C and 5% CO2 for further culture for 2 h. Then, the supernatant of the cell culture plate was discarded, 50 µL of lysis buffer was added to each well, the cells were lysed at room temperature under shaking for 30 min, then placed in a centrifuge and centrifuged at 1000 rpm for 1 min. 15 µL of supernatant was transferred to a 384-well plate, 5 µL of detection mixture was added to each well (Eu-labeled anti-ERK1/2 (T202-Y204) Antibody at a final detection concentration of 0.5 nM and ULight labeled anti-ERK1/2 Antibody at a final detection concentration of 5 nM), centrifuged at 1000 rpm for 1 min, mixed evenly, and reacted at room temperature overnight. The plate was read using Envison and the signal values at the emission wavelengths of 620 nm and 665 nm were detected using a time-resolved fluorescence program. 4. […] Graphpad Prism software was used to fit the concentration and inhibition rate to a nonlinear regression curve, so as to obtain the IC50 value. Table 5: Inhibition activity of the compounds on p-ERK in AGS cells
On the technique in general: In TR-FRET formats the signal depends on donor and acceptor labels being close together.

A further experiment concerns AsPC-1. Kind of experiment: Inhibition of proliferation of KRAS G12D mutant tumor cell line AsPC-1 (CellTiter-Glo). It counts as cell-based. The method, boiled down: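 KRAS G12D-mutant AsPC-1 cells plated overnight at 37 °C/5% CO2, then exposed to serial compound dilutions (DMSO/medium, vehicle control) for about 72 h. Viability read by CellTiter-Glo luminescence; inhibition rate vs concentration fitted by nonlinear regression for IC50.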
For orientation: Cellular ATP, detected with luciferase, serves as a proxy for viable cell number.

Where [1] appears, read: Homo sapiens, ASPC1, about 72 h.

This is an account of results in EP4635958A1, “PYRIMIDINE-CONTAINING POLYCYCLIC DERIVATIVE INHIBITOR, AND PREPARATION METHOD THEREFOR AND USE THEREOF” (Shanghai Hansoh Biomedical Co., Ltd., priority 2022, dated 2024).

Where a name gives a salt, the structure may show the parent alone.

With `CON=C1CCN(CC2(COc3nc4c5c(nc(-c6cc(N)cc(Cl)c6C(F)(F)F)c(F)c5n3)O[C@@H](C)[C@@H]3[C@@H]5CC[C@H](CN43)N5)CC2)CC1` [Example 337, 1-((1-((((5S,5aS,6S,9R)-2-(5-amino-3-chloro-2-(trifluoromethyl)phenyl)-1-fluoro-5-methyl-5a,6,7,8,9,10-hexahydro-5H-4-oxa-3,10a,11,13,14-pentaaza-6,9-methylnaphtho[1,8-ab]heptene-12-yl)oxy)methyl)cyclopropyl)methyl)piperidin-4-one O-methyloxime], the IC50 (commonly the point on the concentration scale where inhibition reaches its midpoint) in the experiment on p-ERK in AGS cells was determined as 4.6 nM; with AsPC-1 (setting [1]) it was 1.2 nM.

With `[2H]C([2H])(Oc1nc2c3c(nc(-c4cc(O)cc5ccc(F)c(C#C)c45)c(F)c3n1)O[C@@H](C)[C@@H]1[C@@H]3CC[C@H](CN21)N3)C1(C([2H])([2H])N2CCC(=CF)CC2)CC1` [Example 291, 5-ethynyl-6-fluoro-4-((5S,5aS,6S,9R)-1-fluoro-12-((1-((4-(fluoromethylene)piperidin-1-yl)methyl-d2)cyclopropyl)methoxy-d2)-5-methyl-5a,6,7,8,9,10-hexahydro-5H-4-oxa-3,10a,11,13,14-pentaaza-6,9-methylnaphtho[1,8-ab]hept-2-yl)naphthalen-2-ol], the figures for the IC50 in the experiment on p-ERK in AGS cells and in the experiment with AsPC-1 (setting [1]) were 2.3 nM and 4.6 nM, respectively.

On to `C#Cc1c(F)ccc2cc(O)cc(-c3nc4c5c(nc(OCC6(CN7CCC(=C(F)F)CC7)CC6)nc5c3F)N3C[C@H]5CC[C@H](N5)[C@H]3CO4)c12` [Example 1-1, 4-((5aS,6S,9R)-12-((1-((4-(difluoromethylene)piperidin-1-yl)methyl)cyclopropyl)methoxy)-1-fluoro-5a,6,7,8,9,10-hexahydro-5H-4-oxa-3,10a,11,13,14-pentaaza-6,9-methylenenaphtho[1,8-ab]heptalene-2-yl)-5-ethynyl-6-fluoronaphthalen-2-ol], for which the concentration for half-maximal inhibition (IC50) in the experiment on p-ERK in AGS cells turned out to be 7 nM.

Turning to `[2H]C([2H])([2H])[C@@H]1Oc2nc(-c3cc(O)cc4ccc(F)c(C#C)c34)c(F)c3nc(OCC4(CN5CCC(=C(F)F)CC5)CC4)nc(c23)N2C[C@H]3CC[C@H](N3)[C@@H]12` [Example 161, 4-((5S,5aS,6S,9R)-12-((1-((4-(difluoromethylene)piperidin-1-yl)methyl)cyclopropyl)methoxy)-1-fluoro-5-(methyl-d3)-5a,6,7,8,9,10-hexahydro-5H-4-oxa-3,10a,11,13,14-pentaaza-6,9-methylnaphtho[1,8-ab]hept-2-yl)-5-ethynyl-6-fluoronaphthalen-2-ol], the IC50 amounted to 4.9 nM with p-ERK in AGS cells and 4.4 nM in the experiment with AsPC-1 (setting [1]).

Regarding `[2H]C([2H])([2H])[C@@H]1Oc2nc(-c3cc(N)cc(Cl)c3C(F)(F)F)c(F)c3nc(OCC4(CN5CCC(=NOC)CC5)CC4)nc(c23)N2C[C@H]3CC[C@H](N3)[C@@H]12` [Example 339], the IC50 is 4.4 nM with p-ERK in AGS cells and 3.5 nM in the experiment with AsPC-1 (setting [1]).

As to `[2H]C([2H])([2H])[C@@H]1Oc2nc(-c3cc(O)cc4ccc(F)c(C#C)c34)c(F)c3nc(OCC4(CN5CCC(=CF)CC5)CC4)nc(c23)N2C[C@H]3CC[C@H](N3)[C@@H]12` [Example 164], the values for the IC50 in the experiment on p-ERK in AGS cells and with AsPC-1 (setting [1]) were 3.6 nM and 6.6 nM, respectively.

As to `C#Cc1c(F)ccc2cc(O)cc(-c3nc4c5c(nc(OCC6(CN7CCC(=NOC)CC7)CC6)nc5c3F)N3C[C@H]5CC[C@H](N5)[C@H]3[C@H](C)O4)c12` [Example 35-1, 1-((1-((((5S,5aS,6S,9R)-2-(8-ethynyl-7-fluoro-3-hydroxynaphthalen-1-yl)-1-fluoro-5-methyl-5a,6,7,8,9,10-hexahydro-5H-4-oxa-3,10a,11,13,14-pentaaza-6,9-methylenenaphtho[1,8-ab]heptalen-12-yl)oxo)methyl)cyclopropyl)methyl)piperidin-4-one O-methyloxime formate], the figures for the IC50 with p-ERK in AGS cells and with AsPC-1 (setting [1]) were 2.7 nM and 3.8 nM, respectively.

In the case of `C#Cc1c(F)ccc2cc(O)cc(-c3nc4c5c(nc(OCC6(CN7CCC(=CF)CC7)CC6)nc5c3F)N3C[C@H]5CC[C@H](N5)[C@H]3[C@H](C)O4)c12` [Example 129, 5-ethynyl-6-fluoro-4-((5S,5aS,6S,9R)-1-fluoro-12-((1-((4-(fluoromethylene)piperidin-1-yl)methyl)cyclopropyl)methoxy)-5-methyl-5a,6,7,8,9,10-hexahydro-5H-4-oxa-3,10a,11,13,14-pentaaza-6,9-methylnaphtho[1,8-ab]hept-2-yl)naphthalen-2-ol], the IC50 came to 2.4 nM in the experiment on p-ERK in AGS cells and 3.6 nM in the experiment with AsPC-1 (setting [1]).

Turning to `C#Cc1c(F)ccc2cc(O)cc(-c3nc4c5c(nc(OCC6(CN7CCC(=C(F)F)CC7)CC6)nc5c3F)N3C[C@H]5CC[C@H](N5)[C@H]3[C@H](C)O4)c12` [Example 19-1, 4-((5S,5aS,6S,9R)-12-((1-((4-(difluoromethylene)piperidin-1-yl)methyl)cyclopropyl)methoxy)-1-fluoro-5-methyl-5a,6,7,8,9,10-hexahydro-5H-4-oxa-3,10a,11,13,14-pentaaza-6,9-methylnaphtho[1,8-ab]hept-2-yl)-5-ethynyl-6-fluoronaphthalene-2-ol], the IC50 in the experiment on p-ERK in AGS cells was 5.6 nM; with AsPC-1 (setting [1]) it was 3.1 nM.

Regarding “4-((5S,5aS,6R,9S)-12-((1-((((R)-4-(difluoromethylene)-2-methylpiperidin-1-yl)methyl)cyclopropyl)methoxy)-1-fluoro-5-(methyl-d3)-5a,6,7,8,9,10-hexahydro-5H-4-oxa-3,10a,11,13,14-pentaaza-6,9-methylnaphtho[1,8-ab]hept-2-yl)-5-ethynyl-6-fluoronaphthalen-2-ol [Example 162]”, the IC50 with AsPC-1 (about 72 h) was found to be 4 nM.
